Source: patent US20260166039A1 (SCHRÖDINGER, INC., priority 2022, published 2026)

These compounds were tested against T1, Wee1 kinase domain (Homo sapiens, UniProt P30291) (assay: Wee1 Kinase Biochemical Assay (ADP-Glo)). Conditions: 1 nM Wee1 enzyme, 15 uM ATP, 4 hours at 25° C.
T1 construct: Wee1 kinase domain was purchased from Carna (catalog #05-177); purchased Carna 05-177
Method: Wee1 Kinase Biochemical Assay Protocol
Wee1 kinase domain was purchased from Carna (catalog #05-177). Wee1 kinase activity was determined with Poly(Lys,Tyr 4:1) hydrobromide as a substrate (Sigma-Aldrich) and by measuring ADP production using the ADP-Glo Kinase Assay kit (Promega) following the manufacturer's instructions. The kinase reaction was performed using the following conditions:
Buffer: 40 mM Tris-HCl, 20 mM magnesium chloride, supplemented with 0.1 mg/mL bovine serum albumin and 2 mM DTT. The final reaction mix contained 1 nM Wee1 enzyme, 15 uM ATP, and 2 ng/mL Poly(Lys,Tyr 4:1) hydrobromide substrate. The reaction time was 4 hours at 25° C.
The ADP-Glo signal was measured using the Envision plate reader and the percentage inhibition of kinase activity calculated for each inhibitor tested. Percent inhibition of Wee1 kinase activity was calculated based on the following formula.
[formula] • SSample: the signal of compounds • SHigh Ctrl: the signal of high control (DMSO) • SLow Ctrl: the signal of low control (positive control Wee1 inhibitor at saturating concentration)

T1 sequence (P30291 299-569 limits assumed): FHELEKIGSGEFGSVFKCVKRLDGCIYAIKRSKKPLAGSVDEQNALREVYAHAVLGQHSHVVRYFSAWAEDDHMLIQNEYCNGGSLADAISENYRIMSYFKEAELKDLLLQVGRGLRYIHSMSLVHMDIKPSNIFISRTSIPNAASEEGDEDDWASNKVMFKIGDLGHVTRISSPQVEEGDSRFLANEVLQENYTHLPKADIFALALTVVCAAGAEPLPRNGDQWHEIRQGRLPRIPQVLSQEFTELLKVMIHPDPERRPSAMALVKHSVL

Row | SMILES | IC50 [nM]
1 | CN1C[C@@H]2C[C@H]1CN2c1ccc(Nc2ncc3c(n2)N(c2cccc(C(F)F)n2)[C@@H]2CC(C)(C)OC[C@]32C)cc1 [Example 813, (4bR,8aR)-9-(6-(difluoromethyl)pyridin-2-yl)-4b,7,7-trimethyl-N-(4-((1S,4S)-5-methyl-2,5-diazabicyclo[2.2.1]heptan-2-yl)phenyl)-4b,5,7,8,8a,9-hexahydropyrano[3′,4′:4,5]pyrrolo[2,3-d]pyrimidin-2-amine] | < 10
2 | COCCN1CCC(n2ccc(Nc3ncc4c(n3)N(c3cccc(N=S(C)(C)=O)n3)[C@@H]3CC(C)(C)OC[C@]43C)cc2=O)CC1 (single isomer, unassigned) [Example 825] | < 10

Same assay, conditions: Wee1 kinase domain, 15 uM ATP, ADP-Glo

Row | SMILES | IC50 [nM]
3 | Cc1cc(Nc2ncc3c(n2)N(c2cccc(N4C(=O)OC[C@@H]4C)n2)[C@H]2CC(C)(C)OC[C@@]32C)ccc1C1CCN(C)CC1 (single isomer, unassigned) [Example 239] | < 10
4 | CNCc1cccc(N2c3nc(Nc4ccccc4)ncc3[C@]3(C)COC(C)(C)C[C@H]23)n1 (single isomer, unassigned) [Example 46] | 10 to 100
5 | CN1CC[C@@H](Oc2ccc(Nc3ncc4c(n3)N(c3cccc(N=S(C)(C)=O)n3)[C@H]3CC(C)(C)OC[C@@]43C)cc2)C1 (single isomer, unassigned) [Example 160] | 100 to 1000
6 | CNCc1cccc(N2c3nc(Nc4ccc([C@]5(C)CCN(C)C5=O)cc4)ncc3[C@]3(C)COC(C)(C)C[C@H]23)n1 (single isomer, unassigned) [Example 77] | 100 to 1000
7 | CNCc1cccc(N2c3nc(Nc4ccc(C5CCOCC5)cc4)ncc3[C@]3(C)COC(C)(C)C[C@H]23)n1 (single isomer, unassigned) [Example 36] | 10 to 100
8 | CN1CCC[C@@H]1c1ccc(Nc2ncc3c(n2)N(c2cccc(N=S(C)(C)=O)n2)[C@H]2CC(C)(C)OC[C@@]32C)cc1 (single isomer, unassigned) [Example 128] | 100 to 1000
9 | CNCc1cccc(N2c3nc(Nc4ccc(N5CCCOCC5)cc4)ncc3[C@]3(C)COC(C)(C)C[C@H]23)n1 (single isomer, unassigned) [Example 17] | 100 to 1000
10 | CNCc1cccc(N2c3nc(Nc4ccc(N5CCOCC5)c(Cl)c4)ncc3[C@]3(C)COC(C)(C)C[C@H]23)n1 (single isomer, unassigned) [Example 13] | 10 to 100
11 | CN1C[C@@H]2CN(c3ccc(Nc4ncc5c(n4)N(c4cccc(N=S(C)(C)=O)n4)[C@H]4CC(C)(C)OC[C@@]54C)cc3)C[C@@H]2C1 (single isomer, unassigned) [Example 218] | 10 to 100
12 | C[C@H]1COC(=O)N1c1cccc(N2c3nc(Nc4ccc(O[C@@H]5CCN(C)C5)cc4)ncc3[C@]3(C)COC(C)(C)C[C@H]23)n1 (single isomer, unassigned) [Example 330] | 10 to 100
13 | CNCc1cccc(N2c3nc(Nc4ccc(N5C(=O)CC[C@H]5C)cc4)ncc3[C@]3(C)COC(C)(C)C[C@H]23)n1 (single isomer, unassigned) [Example 29] | 10 to 100
14 | CN1CC[C@@H](c2ccc(Nc3ncc4c(n3)N(c3cccc(N=S(C)(C)=O)n3)[C@H]3CC(C)(C)OC[C@@]43C)cc2)C1 (single isomer, unassigned) [Example 130] | 100 to 1000
15 | C[C@H]1COC(=O)N1c1cccc(N2c3nc(Nc4ccc([C@H]5CCNC5)cc4)ncc3[C@]3(C)COC(C)(C)C[C@H]23)n1 (single isomer, unassigned) [Example 278] | 10 to 100

Same assay, conditions: class symbols; 1 nM Wee1 enzyme, 15 uM ATP, 4 hours at 25° C.

Row | SMILES | IC50 [nM]
16 | CN1CC2(C1)CN(c1ccc(Nc3ncc4c(n3)N(c3cccc(C(C)(C)O)n3)[C@H]3CC(C)(C)OC[C@@]43C)cc1)C2 (single isomer, unassigned) [Example 444] | 100 to 1000
17 | CC1(C)C[C@@H]2N(c3cccc(N4CCOC4=O)n3)c3nc(Nc4ccc([C@H]5CCNC5)cc4)ncc3[C@]2(C)CO1 [Example 609, 3-(6-((4bS,8aS)-4b,7,7-trimethyl-2-((4-((R)-pyrrolidin-3-yl)phenyl)amino)-4b,7,8,8a-tetrahydropyrano[3′,4′:4,5]pyrrolo[2,3-d]pyrimidin-9(5H)-yl)pyridin-2-yl)oxazolidin-2-one] | 10 to 100
18 | CC1(C)C[C@@H]2N(c3cccc(N4CCCC4=O)n3)c3nc(Nc4ccc(C5CNC5)cc4)ncc3[C@]2(C)CO1 [Example 663, 1-(6-((4bS,8aS)-2-((4-(azetidin-3-yl)phenyl)amino)-4b,7,7-trimethyl-4b,7,8,8a-tetrahydropyrano[3′,4′:4,5]pyrrolo[2,3-d]pyrimidin-9(5H)-yl)pyridin-2-yl)pyrrolidin-2-one] | 10 to 100
19 | CN[C@@H](C)c1cc(C)nc(N2c3nc(Nc4ccc(N5CCOCC5)cc4)ncc3[C@@]3(C)COC(C)(C)C[C@@H]23)c1 (single isomer, unassigned) [Example 560] | 10 to 100
20 | CC[C@@]1(O)CCc2ccc(N3c4nc(Nc5ccc(N6C[C@H]7C[C@@H]6CN7C)cc5)ncc4[C@@]4(C)COC(C)(C)C[C@@H]34)nc21 [Example 790, (R)-7-ethyl-2-((4bR,8aR)-4b,7,7-trimethyl-2-((4-((1R,4R)-5-methyl-2,5-diazabicyclo[2.2.1]heptan-2-yl)phenyl)amino)-4b,7,8,8a-tetrahydropyrano[3′,4′:4,5]pyrrolo[2,3-d]pyrimidin-9(5H)-yl)-6,7-dihydro-5H-cyclopenta[b]pyridin-7-ol] | < 10
21 | CNCc1cccc(N2c3nc(Nc4ccn(C)c(=O)c4)ncc3[C@@]3(C)COC(C)(C)C[C@@H]23)n1 (single isomer, unassigned) [Example 456] | 10 to 100
22 | CN1C[C@@H]2C[C@H]1CN2c1ccc(Nc2ncc3c(n2)N(c2cccc(N4C(=O)OCC4(C)C)n2)[C@@H]2CC(C)(C)OC[C@]32C)cc1 [Example 796, 4,4-dimethyl-3-(6-((4bR,8aR)-4b,7,7-trimethyl-2-((4-((1S,4S)-5-methyl-2,5-diazabicyclo[2.2.1]heptan-2-yl)phenyl)amino)-4b,7,8,8a-tetrahydropyrano[3′,4′:4,5]pyrrolo[2,3-d]pyrimidin-9(5H)-yl)pyridin-2-yl)oxazolidin-2-one] | < 10
23 | CC[C@]1(O)CCc2ccc(N3c4nc(Nc5ccc(N6C[C@H]7C[C@@H]6CN7C)cc5)ncc4[C@@]4(C)COC(C)(C)C[C@@H]34)nc21 [Example 789, (S)-7-ethyl-2-((4bR,8aR)-4b,7,7-trimethyl-2-((4-((1R,4R)-5-methyl-2,5-diazabicyclo[2.2.1]heptan-2-yl)phenyl)amino)-4b,7,8,8a-tetrahydropyrano[3′,4′:4,5]pyrrolo[2,3-d]pyrimidin-9(5H)-yl)-6,7-dihydro-5H-cyclopenta[b]pyridin-7-ol] | < 10
24 | CC1(C)C[C@@H]2N(c3cccc([C@H]4CCNC4)n3)c3nc(Nc4ccc(N5CCOCC5)cc4)ncc3[C@]2(C)CO1 (single isomer, unassigned) [Example 541] | 100 to 1000
25 | CN1CC[C@H]2CN(c3ccc(Nc4ncc5c(n4)N(c4cccc(N6CCOC6=O)n4)[C@H]4CC(C)(C)OC[C@@]54C)cc3)C[C@H]21 [Example 685, 3-(6-((4bS,8aS)-4b,7,7-trimethyl-2-((4-((3aS,6aS)-1-methylhexahydropyrrolo[3,4-b]pyrrol-5(1H)-yl)phenyl)amino)-4b,7,8,8a-tetrahydropyrano[3′,4′:4,5]pyrrolo[2,3-d]pyrimidin-9(5H)-yl)pyridin-2-yl)oxazolidin-2-one] | 10 to 100
26 | CC1(C)C[C@H]2N(c3cccc(N=S(C)(C)=O)n3)c3nc(NC(=O)C4(F)CC4)ncc3[C@@]2(C)CO1 (single isomer, unassigned) [Example 410] | 10 to 100
27 | CN1CC[C@@H](Oc2ccc(Nc3ncc4c(n3)N(c3cccc(C(C)(C)O)n3)[C@@H]3CC(C)(C)OC[C@]43C)cc2)C1 (single isomer, unassigned) [Example 424] | 10 to 100
28 | CC1(C)C[C@@H]2N(c3cccc(N4CCOC4=O)n3)c3nc(Nc4ccc(O[C@@H]5CCNC5)cc4)ncc3[C@]2(C)CO1 [Example 623, 3-(6-((4bS,8aS)-4b,7,7-trimethyl-2-((4-(((R)-pyrrolidin-3-yl)oxy)phenyl)amino)-4b,7,8,8a-tetrahydropyrano[3′,4′:4,5]pyrrolo[2,3-d]pyrimidin-9(5H)-yl)pyridin-2-yl)oxazolidin-2-one] | 10 to 100
29 | CN1C[C@@H]2CN(c3ccc(Nc4ncc5c(n4)N(c4ccccn4)[C@@H]4CC(C)(C)OC[C@]54C)cc3)C[C@@H]2C1 (single isomer, unassigned) [Example 803] | < 10
30 | CN1CC[C@H]2CN(c3ccc(Nc4ncc5c(n4)N(c4cccc(C(C)(C)O)n4)[C@H]4CC(C)(C)OC[C@@]54C)cc3)C[C@H]21 (single isomer, unassigned) [Example 440] | 10 to 100
31 | CN1CC2(C1)CN(c1ccc(Nc3ncc4c(n3)N(c3cccc(N5C(=O)CCC5(C)C)n3)[C@@H]3CC(C)(C)OC[C@]43C)cc1)C2 (single isomer, unassigned) [Example 786] | < 10
32 | C[C@H]1COC(=O)N1c1cccc(N2c3nc(Nc4ccc([C@H]5CCN(C)C5)cc4)ncc3[C@@]3(C)COCC[C@@H]23)n1 [Example 793, (S)-4-methyl-3-(6-((4bR,8aR)-4b-methyl-2-((4-((R)-1-methylpyrrolidin-3-yl)phenyl)amino)-4b,7,8,8a-tetrahydropyrano[3′,4′:4,5]pyrrolo[2,3-d]pyrimidin-9(5H)-yl)pyridin-2-yl)oxazolidin-2-one] | < 10
33 | CNCc1cccc(N2c3nc(Nc4ccc(N5CCOC[C@@H]5C)cc4)ncc3[C@]3(C)COC(C)(C)C[C@H]23)n1 (single isomer, unassigned) [Example 475] | 100 to 1000
